Reference: PMC8819633 (Journal of medicinal chemistry, 2021)

Tests used:
[1] = tested on: total AKT (T-AKT) and phosphorylated AKT (P-AKT (S473)); assay: Western blot of AKT degradation in BT474 cells; type: cell-based, human; conditions: for T-AKT and P-AKT protein degradation (western blot): 24 h, 1, 5 and 10 μM (12-13: 1, 3 and 10 μM); for T-AKT and P-AKT degradation: 1 μM; for T-AKT and P-AKT degradation / extent of T-AKT degradation in concentration-response / T-AKT protein level (western blot): 24 h; for extent of T-AKT degradation in concentration-response: indicated concentrations; for T-AKT protein level (western blot): controls at 1 μM
[2] = tested on: P-PRAS40 (T246) and P-S6 (S240/244); assay: Western blot of downstream signaling inhibition in BT474 cells; type: cell-based, human; conditions: 24 h, compared with GDC-0068 (1 μM)

Compound	T-AKT and P-AKT protein degradation (western blot) [1]	also measured
3-(((S)-2-(4-Chlorophenyl)-3-(4-((5R,7R)-7-hydroxy-5-methyl-6,7-dihydro-5H-cyclopenta[d]pyrimidin-4-yl)piperazin-1-yl)-3-oxopropyl)amino)-N-(2-(2-((2-(2,6-dioxopiperidin-3-yl)-1,3-dioxoisoindolin-4-yl)amino)ethoxy)ethyl)propenamide [Compound 14]	not very effective at all concentrations tested	–
3-(((S)-2-(4-Chlorophenyl)-3-(4-((5R,7R)-7-hydroxy-5-methyl-6,7-dihydro-5H-cyclopenta[d]pyrimidin-4-yl)piperazin-1-yl)-3-oxopropyl)amino)-N-(2-((2-(2,6-dioxopiperidin-3-yl)-1,3-dioxoisoindolin-4-yl)amino)ethyl)propenamide [Compound 19]	marginally effective in inducing AKT degradation at 1–10 μM	–
3-(((S)-2-(4-Chlorophenyl)-3-(4-((5R,7R)-7-hydroxy-5-methyl-6,7-dihydro-5H-cyclopenta[d]pyrimidin-4-yl)piperazin-1-yl)-3-oxopropyl)amino)-N-(3-((2-(2,6-dioxopiperidin-3-yl)-1,3-dioxoisoindolin-4-yl)amino)propyl)propenamide [Compound 20]	marginally effective in inducing AKT degradation at 1–10 μM	–
3-(((S)-2-(4-Chlorophenyl)-3-(4-((5R,7R)-7-hydroxy-5-methyl-6,7-dihydro-5H-cyclopenta[d]pyrimidin-4-yl)piperazin-1-yl)-3-oxopropyl)amino)-N-(4-((2-(2,6-dioxopiperidin-3-yl)-1,3-dioxoisoindolin-4-yl)amino)butyl)propenamide [Compound 21]	marginally effective in inducing AKT degradation at 1–10 μM	–
3-(((S)-2-(4-Chlorophenyl)-3-(4-((5R,7R)-7-hydroxy-5-methyl-6,7-dihydro-5H-cyclopenta[d]pyrimidin-4-yl)piperazin-1-yl)-3-oxopropyl)amino)-N-(5-((2-(2,6-dioxopiperidin-3-yl)-1,3-dioxoisoindolin-4-yl)amino)pentyl)propenamide [Compound 22]	marginally effective in inducing AKT degradation at 1–10 μM	–
3-(((S)-2-(4-Chlorophenyl)-3-(4-((5R,7R)-7-hydroxy-5-methyl-6,7-dihydro-5H-cyclopenta[d]pyrimidin-4-yl)piperazin-1-yl)-3-oxopropyl)amino)-N-(6-((2-(2,6-dioxopiperidin-3-yl)-1,3-dioxoisoindolin-4-yl)amino)hexyl)propenamide [Compound 23]	highly effective in reducing T-AKT and P-AKT protein levels	–
3-(((S)-2-(4-Chlorophenyl)-3-(4-((5R,7R)-7-hydroxy-5-methyl-6,7-dihydro-5H-cyclopenta[d]pyrimidin-4-yl)piperazin-1-yl)-3-oxopropyl)amino)-N-(7-((2-(2,6-dioxopiperidin-3-yl)-1,3-dioxoisoindolin-4-yl)amino)heptyl)propenamide [Compound 24]	highly effective in reducing T-AKT and P-AKT protein levels	–
3-(((S)-2-(4-Chlorophenyl)-3-(4-((5R,7R)-7-hydroxy-5-methyl-6,7-dihydro-5H-cyclopenta[d]pyrimidin-4-yl)piperazin-1-yl)-3-oxopropyl)amino)-N-(8-((2-(2,6-dioxopiperidin-3-yl)-1,3-dioxoisoindolin-4-yl)oxy)octyl)propenamide [Compound 29]	maintained the excellent AKT degradation	inhibition of downstream signaling, P-PRAS40 and P-S6 [2]: maintained the excellent AKT degradation and downstream signaling inhibition effects; T-AKT and P-AKT degradation [1]: > 95%
3-(((S)-2-(4-Chlorophenyl)-3-(4-((5R,7R)-7-hydroxy-5-methyl-6,7-dihydro-5H-cyclopenta[d]pyrimidin-4-yl)piperazin-1-yl)-3-oxopropyl)amino)-N-(8-((2-(2,6-dioxopiperidin-3-yl)-1-oxoisoindolin-4-yl)amino)octyl)propenamide [Compound 28]	completely abolished AKT degradation activity	–
3-(((S)-2-(4-Chlorophenyl)-3-(4-((5R,7R)-7-hydroxy-5-methyl-6,7-dihydro-5H-cyclopenta[d]pyrimidin-4-yl)piperazin-1-yl)-3-oxopropyl)amino)-N-(9-(2-(2,6-dioxopiperidin-3-yl)-1,3-dioxoisoindolin-4-yl)nonyl)propenamide [Compound 27]	maintained the excellent AKT degradation	inhibition of downstream signaling, P-PRAS40 and P-S6 [2]: maintained the excellent AKT degradation and downstream signaling inhibition effects; T-AKT and P-AKT degradation [1]: > 95%
Cc1ncsc1-c1ccc(CNC(=O)[C@@H]2C[C@@H](O)CN2C(=O)[C@@H](NC(=O)COCCNC(=O)CCNC[C@@H](C(=O)N2CCN(c3ncnc4c3[C@H](C)C[C@H]4O)CC2)c2ccc(Cl)cc2)C(C)(C)C)cc1 [Compound 3, (2S,4R)-1-((2S,15S)-2-(tert-Butyl)-15-(4-chlorophenyl)-16-(4-((5R,7R)-7-hydroxy-5-methyl-6,7-dihydro-5H-cyclopenta[d]-pyrimidin-4-yl)piperazin-1-yl)-4,10,16-trioxo-6-oxa-3,9,13-triaza-hexadecanoyl)-4-hydroxy-N-(4-(4-methylthiazol-5-yl)benzyl)-pyrrolidine-2-carboxamide]	induced significant T-AKT and P-AKT protein degradation at concentrations of 5 and 10 μM	inhibition of downstream signaling, P-PRAS40 and P-S6 [2]: less than GDC-0068
Cc1ncsc1-c1ccc(CNC(=O)[C@@H]2C[C@@H](O)CN2C(=O)[C@@H](NC(=O)COCCOCCNC(=O)CCNC[C@@H](C(=O)N2CCN(c3ncnc4c3[C@H](C)C[C@H]4O)CC2)c2ccc(Cl)cc2)C(C)(C)C)cc1 [Compound 4, (2S,4R)-1-((2S,18S)-2-(tert-Butyl)-18-(4-chlorophenyl)-19-(4-((5R,7R)-7-hydroxy-5-methyl-6,7-dihydro-5H-cyclopenta[d]-pyrimidin-4-yl)piperazin-1-yl)-4,13,19-trioxo-6,9-dioxa-3,12,16-tri-azanonadecanoyl)-4-hydroxy-N-(4-(4-methylthiazol-5-yl)benzyl)-pyrrolidine-2-carboxamide]	less effective in AKT degradation	–
Cc1ncsc1-c1ccc(CNC(=O)[C@@H]2C[C@@H](O)CN2C(=O)[C@@H](NC(=O)CCCCNC(=O)CCNC[C@@H](C(=O)N2CCN(c3ncnc4c3[C@H](C)C[C@H]4O)CC2)c2ccc(Cl)cc2)C(C)(C)C)cc1 [Compound 6, (2S,4R)-1-((S)-2-(5-(3-(((S)-2-(4-Chlorophenyl)-3-(4-((5R,7R)-7-hydroxy-5-methyl-6,7-dihydro-5H-cyclopenta[d]pyrimidin-4-yl)-piperazin-1-yl)-3-oxopropyl)amino)propanamido)pentanamido)-3,3-dimethylbutanoyl)-4-hydroxy-N-(4-(4-methylthiazol-5-yl)-benzyl)pyrrolidine-2-carboxamide]	concentration-dependently reduced the protein levels of T-AKT and P-AKT	–
Cc1ncsc1-c1ccc([C@H](C)NC(=O)[C@H]2C[C@H](O)CN2C(=O)[C@@H](NC(=O)CCCCCCCCCCC(=O)NCCNC[C@@H](C(=O)N2CCN(c3ncnc4c3[C@H](C)C[C@H]4O)CC2)c2ccc(Cl)cc2)C(C)(C)C)cc1 [Compound 61, N^1-(2-(((S)-2-(4-Chlorophenyl)-3-(4-((5R,7R)-7-hydroxy-5-methyl-6,7-dihydro-5H-cyclopenta[d]pyrimidin-4-yl)piperazin-1-yl)-3-oxopropyl)amino)ethyl)-N^12-((S)-1-((2R,4S)-4-hydroxy-2-(((S)-1-(4-(4-methylthiazol-5-yl)phenyl)ethyl)carbamoyl)pyrrolidin-1-yl)-3,3-dimethyl-1-oxobutan-2-yl)dodecanediamide]	–	extent of T-AKT degradation in concentration-response [1]: did not degrade T-AKT
C[C@@H]1C[C@@H](O)c2ncnc(N3CCN(C(=O)[C@H](CNCCC(=O)NCCCCCCCCNc4cccc5c4C(=O)N(C4CCC(=O)N(C)C4=O)C5=O)c4ccc(Cl)cc4)CC3)c21 (stereo partly drawn) [Compound 62, 3-(((S)-2-(4-Chlorophenyl)-3-(4-((5R,7R)-7-hydroxy-5-methyl-6,7-dihydro-5H-cyclopenta[d]pyrimidin-4-yl)piperazin-1-yl)-3-oxopropyl)amino)-N-(8-((2-(1-methyl-2,6-dioxopiperidin-3-yl)-1,3-dioxoisoindolin-4-yl)amino)octyl)propenamide]	–	extent of T-AKT degradation in concentration-response [1]: did not degrade T-AKT
Nc1cccc2c1C(=O)N(C1CCC(=O)NC1=O)C2=O (centres unmarked) [POM, pomalidomide, reference compound]	–	T-AKT protein level (western blot) [1]: no detectable effect on the T-AKT protein level
Cc1ncsc1-c1ccc(CNC(=O)[C@@H]2C[C@@H](O)CN2C(=O)[C@@H](N)C(C)(C)C)cc1 [VHL-1, reference compound]	–	T-AKT protein level (western blot) [1]: no detectable effect on the T-AKT protein level
(2S,4R)-1-((2S,25S)-2-(tert-Butyl)-25-(4-chlorophenyl)-26-(4-((5R,7R)-7-hydroxy-5-methyl-6,7-dihydro-5H-cyclopenta[d]-pyrimidin-4-yl)piperazin-1-yl)-4,20,26-trioxo-7,10,13,16-tetraoxa-3,19,23-triazahexacosanoyl)-4-hydroxy-N-(4-(4-methylthiazol-5-yl)benzyl)pyrrolidine-2-carboxamide [Compound 5]	less effective in AKT degradation	–
